ChEMBL document CHEMBL3120142 (J Med Chem, 2014)
Converted amounts (≈) assume the structure as drawn. The source made the active and inactive calls. The calls are words filed in the database; no cut-off is given here.

Experiments:
[1] = tested on: MDCK; experiment: Cytotoxicity against MDCK cells assessed as cell viability after 72 hrs; format: cell-based, Canis lupus familiaris; settings: dog
[2] = tested on: Influenza A virus; format: functional, organism-based; settings: A/Jena/5258/2009(H1N1), MDCK
[3] = tested on: Influenza A virus; experiment: microbe, parasite or virus in culture; settings: A/Jena/5258/2009(H1N1), MDCK, 48 h
[4] = tested on: Influenza A virus; experiment: Antiviral activity against Influenza A virus H1N1; format: functional, organism-based
[5] = tested on: Influenza A virus; experiment: Antiviral activity against Influenza A virus H3N2; format: functional, organism-based
[6] = in vivo; settings: Sprague-Dawley, rat, po, 10 mg/kg
[7] = Solubility of the compound in phosphate buffer saline at pH 2.0 after 20 mins by HPLC analysis; format: physicochemical
[8] = tested on: Liver microsome; experiment: Prodrug activation in human liver microsomes assessed as formation of oseltamivir carboxylate per mg protein at 500 uM after 30 mins by HPLC analysis; settings: 0.5 h
[9] = tested on: Liver; experiment: Prodrug activation in 9000g human liver supernatant assessed as formation of oseltamivir carboxylate per mg protein at 500 uM after 30 mins by HPLC analysis; format: tissue-based; settings: 0.5 h
[10] = AUC in Sprague-Dawley rat at 50 mg/kg, iv by LC-MS/MS analysis; format: ADME, organism-based; parameters: dose 50 mg/kg, route intravenous; settings: plasma
[11] = Prodrug activation in human liver mitochondria assessed as formation of oseltamivir carboxylate per mg protein at 500 uM after 30 mins by HPLC analysis; settings: 0.5 h
[12] = Prodrug activation in human liver cytosol assessed as formation of oseltamivir carboxylate per mg protein at 500 uM after 30 mins by HPLC analysis; format: tissue-based; settings: 0.5 h
[13] = target: albumin (Homo sapiens, UniProt P02768); experiment: Binding affinity to albumin (unknown origin) at 10 to 50 uM after 10 mins by HPLC analysis; format: ADME; settings: read-out: PPB (converted)
Sequence of albumin (P02768 whole entry): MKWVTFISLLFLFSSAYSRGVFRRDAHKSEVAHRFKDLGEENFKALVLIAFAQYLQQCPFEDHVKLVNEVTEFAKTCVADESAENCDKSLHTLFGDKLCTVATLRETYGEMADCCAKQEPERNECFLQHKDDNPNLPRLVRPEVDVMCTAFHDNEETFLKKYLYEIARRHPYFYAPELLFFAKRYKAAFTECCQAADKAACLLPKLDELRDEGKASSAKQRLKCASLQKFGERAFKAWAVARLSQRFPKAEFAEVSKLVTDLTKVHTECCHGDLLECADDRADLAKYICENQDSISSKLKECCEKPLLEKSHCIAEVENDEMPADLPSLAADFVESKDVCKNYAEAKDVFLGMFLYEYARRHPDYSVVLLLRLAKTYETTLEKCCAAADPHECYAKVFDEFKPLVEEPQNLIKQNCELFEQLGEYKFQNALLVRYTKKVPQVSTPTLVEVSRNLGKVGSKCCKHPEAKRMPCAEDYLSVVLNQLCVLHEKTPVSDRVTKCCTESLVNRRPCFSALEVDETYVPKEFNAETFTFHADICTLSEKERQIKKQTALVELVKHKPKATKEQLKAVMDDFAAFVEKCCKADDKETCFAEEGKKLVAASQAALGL

[14] = Prodrug activation in pig liver assessed as carboxylesterase-mediated oseltamivir carboxylate formation per mg protein at 500 uM after 30 mins by HPLC analysis; format: tissue-based, Sus scrofa; settings: 0.5 h
[15] = in vivo; settings: Sprague-Dawley, rat, po, 50 mg/kg
[16] = Prodrug activation in pig liver microsomes assessed as formation of oseltamivir carboxylate per mg protein at 500 uM after 30 mins by HPLC analysis; parameters: species or system Sus scrofa, Microsome; settings: 0.5 h
[17] = Solubility of the compound in phosphate buffer saline at pH 7.4 after 20 mins by HPLC analysis; format: physicochemical
[18] = Tmax in Sprague-Dawley rat at 50 mg/kg, po by LC-MS/MS analysis; format: ADME, organism-based; parameters: dose 50 mg/kg, route oral; settings: in vivo
[19] = Solubility of the compound in phosphate buffer saline at pH 9.0 after 20 mins by HPLC analysis; format: physicochemical
[20] = in vivo; settings: Sprague-Dawley, rat, po, 50 mg/kg; remark: listed apart in the source
Description: Half life in Sprague-Dawley rat at 50 mg/kg, po by LC-MS/MS analysis

[21] = Prodrug activation in 9000g pig liver supernatant assessed as formation of oseltamivir carboxylate per mg protein at 500 uM after 30 mins by HPLC analysis; format: tissue-based, Sus scrofa; settings: 0.5 h
[22] = Cmax in Sprague-Dawley rat at 50 mg/kg, po by LC-MS/MS analysis; format: ADME, organism-based; parameters: dose 50 mg/kg, route oral; settings: in vivo
[23] = Prodrug activation in pig liver mitochondria assessed as formation of oseltamivir carboxylate per mg protein at 500 uM after 30 mins by HPLC analysis; parameters: species or system Sus scrofa; settings: 0.5 h
[24] = Mean residence time in Sprague-Dawley rat at 50 mg/kg, po by LC-MS/MS analysis; format: ADME, organism-based; parameters: dose 50 mg/kg, route oral; settings: in vivo
[25] = Chemical stability of the compound in phosphate buffer saline at pH 2.0 to 9.0; format: physicochemical
[26] = Half life in Sprague-Dawley rat plasma; format: ADME, cell-free
[27] = Prodrug activation in pig liver cytosol assessed as formation of oseltamivir carboxylate per mg protein at 500 uM after 30 mins by HPLC analysis; format: tissue-based, Sus scrofa; settings: 0.5 h
[28] = target: T1, Neuraminidase (Influenza A virus, UniProt B4URF0); parameters: species or system A/Berlin/10/04(H3N2)
T1 sequence (B4URF0 whole entry): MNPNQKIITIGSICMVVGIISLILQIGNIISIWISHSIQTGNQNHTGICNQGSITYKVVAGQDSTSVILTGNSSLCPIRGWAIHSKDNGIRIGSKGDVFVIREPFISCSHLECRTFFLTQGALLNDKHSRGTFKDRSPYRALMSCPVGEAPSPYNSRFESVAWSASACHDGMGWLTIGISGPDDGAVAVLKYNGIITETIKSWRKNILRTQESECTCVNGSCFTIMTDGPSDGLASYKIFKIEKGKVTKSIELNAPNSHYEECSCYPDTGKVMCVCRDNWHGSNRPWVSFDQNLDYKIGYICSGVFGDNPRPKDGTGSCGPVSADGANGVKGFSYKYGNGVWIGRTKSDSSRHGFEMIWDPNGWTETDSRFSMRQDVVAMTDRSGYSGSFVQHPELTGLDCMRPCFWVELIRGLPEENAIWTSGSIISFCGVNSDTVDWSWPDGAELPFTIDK

[29] = Plasma protein binding in human at 10 to 50 uM after 10 mins by HPLC analysis; format: ADME, cell-free; settings: read-out: PPB (converted)
[30] = target: T1, Neuraminidase; parameters: species or system A/Jena/5258/2009(H1N1)
[31] = target: T1, Neuraminidase; parameters: species or system A/Rheinland-Pfalz/3911/03(H3N2)
[32] = tested on: Rattus norvegicus; experiment: Bioavailability in Sprague-Dawley rat at 10 mg/kg, iv by LC-MS/MS analysis; format: ADME, organism-based; settings: in vivo
[33] = target: T1, Neuraminidase; parameters: species or system A/Sachsen/6/02(H3N2)
[34] = in vivo; settings: Sprague-Dawley, rat, iv, 10 mg/kg
Description: Half life in Sprague-Dawley rat at 10 mg/kg, iv by LC-MS/MS analysis

[35] = target: T1, Neuraminidase; parameters: species or system A/HH/1580/09(H1N1)
[36] = target: T1, Neuraminidase; parameters: species or system A/Jena/5555/09(H1N1)
[37] = target: T1, Neuraminidase; parameters: species or system A/Hong Kong/68(H3N2)
[38] = Mean residence time in Sprague-Dawley rat at 10 mg/kg, iv by LC-MS/MS analysis; format: ADME, organism-based; parameters: dose 10 mg/kg, route intravenous; settings: in vivo
[39] = Oral bioavailability in fed mouse at 10 mg/kg by LC-MS/MS analysis; format: ADME, organism-based; settings: in vivo
[40] = Oral bioavailability in fasted mouse at 10 mg/kg by LC-MS/MS analysis; format: ADME, organism-based; settings: in vivo
[41] = AUC in Sprague-Dawley rat at 10 mg/kg, iv by LC-MS/MS analysis; format: ADME, organism-based; parameters: dose 10 mg/kg, route intravenous; settings: plasma

SMILES | IC [1] | EC50 [3] | IC50 [4] | IC50 [5] | solubility at 20 min [7] | Drug metabolism [8] | Drug metabolism [9] | AUC [10] | Drug metabolism [11] | fraction unbound at 10 min, up to 50 µM [13] | bioavailability [15] | solubility at 20 min [17] | Tmax [18] | solubility at 20 min [19] | half-life [20] | Cmax [22] | Drug metabolism [23] | MRT [24] | Stability [25] | also measured
CC(=O)N[C@H]1[C@H]([C@H](O)[C@H](O)CO)OC(C(=O)O)=C[C@@H]1N=C(N)N [ZANAMIVIR] | <= 200 ug ml-1 | – | – | – | – | – | – | – | – | – | – | – | – | – | – | – | – | – | – | –
CC(=O)N[C@H]1[C@H]([C@H](O)[C@H](O)CO)OC(C(=O)O)=C[C@@H]1NC(=N)N [ZANAMIVIR] | – | 6560 nM | – | – | – | – | – | – | – | – | – | – | – | – | – | – | – | – | – | Activity [2]: Active
CCC(CC)O[C@@H]1C=C(C(=O)O)C[C@H](N)[C@H]1NC(C)=O [OSELTAMIVIR CARBOXYLATE] | <= 200 ug ml-1 | 5210 nM | 0.12 nM | 0.24 nM | – | – | – | – | – | – | – | – | – | – | – | – | – | – | – | Activity [2]: Active
CCOC(=O)C1=C[C@@H](OC(CC)CC)[C@H](NC(C)=O)[C@@H](NC(=N)N)C1 | – | – | – | – | > 50 mM | 1.06 nmol/min/mg | 0.32 nmol/min/mg | 217 ng·h/mL | 0.79 nmol/min/mg | 0.699 | 1.3% | > 50 mM | 1 h | > 50 mM | 1.45 h | 100 ng/mL | 0.21 nmol/min/mg | 2.62 h | Stable | bioavailability [6]: 2.1%; Drug metabolism [12]: 0.5 nmol/min/mg; Drug metabolism [14]: 1.35 nmol/min/mg; Drug metabolism [16]: 0.22 nmol/min/mg; Drug metabolism [21]: 0.22 nmol/min/mg
CCOC(=O)C1=C[C@@H](OC(CC)CC)[C@H](NC(C)=O)[C@@H](N)C1 [OSELTAMIVIR] | – | – | – | – | – | – | – | – | – | – | – | – | – | – | – | – | – | – | – | bioavailability [6]: 36%; half-life [26]: 0.733 h
CCOC(=O)C1=C[C@@H](OC(CC)CC)[C@H](NC(C)=O)[C@@H](N/C(C)=N/O)C1 | – | – | – | – | > 50 mM | 2.3 nmol/min/mg | 0.56 nmol/min/mg | 13300 ng·h/mL | 0.29 nmol/min/mg | 0.733 | 31.4% | 23 mM (≈ 8.5 mg/mL) | 1.37 h | 23 mM (≈ 8.5 mg/mL) | 1.85 h | 3100 ng/mL | 0.51 nmol/min/mg | 3.43 h | Stable | Drug metabolism [27]: 0.4 nmol/min
CCC(CC)O[C@@H]1C=C(C(=O)O)C[C@H](NC(C)=N)[C@H]1NC(C)=O | 0.53 mM | 1900 nM | 0.4 nM | 1.82 nM | > 50 mM | – | – | 1880 ng·h/mL | – | 0.978 | 3.9% | > 50 mM | 0.733 h | > 50 mM | 1.13 h | 600 ng/mL | – | 2.1 h | Stable | IC50 [28]: 1.3 nM; fraction unbound at 10 min, up to 50 µM [29]: 0.963; IC50 [30]: 0.45 nM; IC50 [31]: 1.79 nM; F [32]: 100%; IC50 [33]: 2.3 nM; half-life [34]: 0.567 h; IC50 [35]: 0.3 nM; IC50 [36]: 0.44 nM; IC50 [37]: 1.87 nM; MRT [38]: 0.533 h
Br.CCOC(=O)C1=C[C@@H](OC(CC)CC)[C@H](NC(C)=O)[C@@H](NC(C)=N)C1 | – | – | – | – | > 50 mM | 0.64 nmol/min/mg | 0.2 nmol/min/mg | 283 ng·h/mL | 0.56 nmol/min/mg | 0.652 | 0.8% | > 50 mM | 0.517 h | > 50 mM | 0.7 h | 200 ng/mL | 0.15 nmol/min/mg | 1.62 h | Stable | Drug metabolism [27]: 0.66 nmol/min; Drug metabolism [14]: 0.83 nmol/min/mg; Drug metabolism [16]: 0.3 nmol/min/mg; Drug metabolism [21]: 0.42 nmol/min/mg
CCC(CC)O[C@@H]1C=C(C(=O)O)C[C@H](NC(=N)N)[C@H]1NC(C)=O | 0.55 mM | 3120 nM | 0.22 nM | 0.8 nM | – | – | – | 450 ng·h/mL | – | 0.996 | 1.9% | – | 1.72 h | – | 1.22 h | 300 ng/mL | – | 2.2 h | Stable | bioavailability [39]: 23%; fraction unbound at 10 min, up to 50 µM [29]: 0.914; F [32]: 100%; bioavailability [40]: 48%; half-life [34]: 1.57 h; AUC [41]: 4800 ng·h/mL; MRT [38]: 0.983 h
CCOC(=O)C1=C[C@@H](OC(CC)CC)[C@H](NC(C)=O)[C@@H](NC(N)=NO)C1 | – | – | – | – | > 50 mM | 1.76 nmol/min/mg | 0.76 nmol/min/mg | 317 ng·h/mL | 1.74 nmol/min/mg | 0.625 | 1.5% | > 50 mM | 1.52 h | > 50 mM | 1.15 h | 100 ng/mL | – | 2.8 h | Stable | Drug metabolism [12]: 0.28 nmol/min/mg
